This is an account of results in patent publication US20120015925A1, “NOVEL BENZOTHIAZEPINE AND BENZOTHIEPINE COMPOUNDS” (ASAHI KASEI PHARMA CORPORATION, priority 2004, published 2012).

Structures are written as SMILES.

As a reminder, the IC50 is the midpoint of a concentration-inhibition curve. The low end stands for greater potency in that assay, the high end for weaker potency in that assay.

The target of data set [1] is T1, human IBAT (Homo sapiens, UniProt Q12908).
T1 sequence (Q12908 1-348): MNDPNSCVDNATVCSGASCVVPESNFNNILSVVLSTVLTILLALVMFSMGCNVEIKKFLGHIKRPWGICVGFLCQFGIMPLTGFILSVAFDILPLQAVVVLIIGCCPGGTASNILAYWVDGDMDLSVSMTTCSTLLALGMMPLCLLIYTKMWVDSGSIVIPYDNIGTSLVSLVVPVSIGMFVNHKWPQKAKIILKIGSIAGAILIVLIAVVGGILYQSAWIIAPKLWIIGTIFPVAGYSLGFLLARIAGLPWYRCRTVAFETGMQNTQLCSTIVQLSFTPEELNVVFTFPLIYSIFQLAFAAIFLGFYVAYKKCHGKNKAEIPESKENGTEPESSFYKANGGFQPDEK
Description: In vitro assay using Cos 7 cells, transiently expressed human IBAT. In kind it is cell-based. The settings on record: [3H]-taurocholate 8 μM uptake, 37° C., 60 minutes. The method, boiled down:
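Cos 7 cells transfected with human or rat IBAT cDNA were assayed one day later in Hanks buffer with 25 mM glucose and 10 mM HEPES (pH 7.4) containing compound. [^3H]-taurocholate (8 μM final) uptake ran 60 min at 37° C. Cells were washed with 1 mM taurocholate, lysed in NaOH, and counted by liquid scintillation.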

The test system of data set [2] is Wistar rats given choline-deficient food. Description: Steatohepatitis model: AST and ALT in blood. In kind it is in vivo, rat. The settings on record: 3 mg/kg oral once a day for 2 weeks, n = 4, average ± standard error. An excerpt:
In the present Test Example, a steatohepatitis model was employed with reference to the method of Okan A et al. (Dig. Dis. Sci., 47:2389-2397, 2002).
That is, choline-deficient food (supplied from Oriental Yeast Co., Ltd.) was given to Wistar rats at 7 weeks of age for two weeks to prepare a steatohepatitis model. The test compound was suspended in an aqueous solution of 0.5% methylcellulose (supplied from Wako Pure Chemical Industries), and the aqueous solution of 0.5% methylcellulose (supplied from Wako Pure Chemical Industries) was used as the control. They were orally administered once a day for consecutive 2 weeks. The blood was collected from the abdominal aorta on the day after the final drug administration. AST (GOT) and ALT (GPT) in the blood were measured using the measurement kits (GOT II-HA Test Wako and GPT II Test Wako, supplied from Wako Pure Chemical Industries) with an automatic analyzer (Nitech ANALAYZER SUPER Z818).

Data set [3] has as its system KKA^y/Ta Jcl male mice. The data set is described as follows: Obesity and fatty liver model: body weight and liver triglyceride. In kind it is in vivo, mouse. The settings on record: Table 14-2. As to the method:
In the present Test Example, an obesity and fatty liver model was employed with reference to the method described in WO02/09757.
That is, KKA^y/Ta Jcl male mice at 10 weeks of age were used as obese mice (N=4 to 7). The test compound was dissolved or suspended in the aqueous solution of 1% HCO 60 (supplied from Nippon Chemicals). The aqueous solution of 1% HCO 60 (supplied from Nippon Chemicals) was used as the control. The consecutive administration was performed once a day for 2 weeks, and body weight was measured daily and compared with the body weight on the day before the administration. On the day after the final administration, the liver was removed, and a triglyceride concentration in liver tissue was measured using a measurement kit (Triglyceride Test Wako, supplied from Wako Pure Chemical Industries). The results are shown in the following Table 14 (Tables 14-1 to 14-3).

In data set [4] the test system is rats dosed cholic acid. The data set is described as follows: Lowering effect on bile acid concentrations in portal vein blood in rats dosed cholic acid. In kind it is in vivo, rat. The settings on record: 0.1 mg/kg oral with cholic acid 200 mg/kg; portal vein serum total bile acid 2 hours after; control = 100%; surfactant HCO-60 (##). In outline:
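Fasted male SD (IGS) rats aged 7–9 weeks received oral cholic acid (200 mg/kg) plus test compound in water with 0.05% or 1% surfactant (n=6). Portal vein serum total bile acid measured 2 h post-dose; reduction rate (%) calculated against cholic acid-only controls set as 100%.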

The subject of data set [5] is Caco-2 cell. The data set is described as follows: Gastrointestinal toxicity: cytotoxicity against Caco-2 cell (LDH activity). Type of data set: cell-based, human. The settings on record: 2 hours, LDH activity in medium relative to cell lysis agent = 100%. In outline:
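Caco-2 cells were grown 48 h, then exposed to compound in medium for 2 h. LDH released into the medium was measured, and cytotoxicity was expressed as activity relative to lysis-agent-treated cells (100%).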

In turn, `CCCCC1(CCCC)CS(=O)(=O)c2ccc(N(C)C)cc2C(c2cccc(NC(=S)Nc3ccc(C[n+]4ccccc4CCC)cc3)c2)N1.[Br-]` (centres unmarked) [EXAMPLE 5408] gave an IC50 in data set [1] of 32 nM. For the same molecule, in data set [2] (control group (n = 6) 180 ± 46), the AST is 103 ± 45 IU/L. The ALT in data set [2] (control group (n = 6) 245 ± 57) is given as 149 ± 38 IU/L. The “BODY WEIGHT (g) BEFORE ADMINISTRATION” value in data set [3] (1 mg/kg group, baseline, control group 44.1 ± 0.6) is 44.0 ± 0.9 g. Also, in data set [3] (1 mg/kg once a day for 2 weeks, control group 0.7 ± 0.4), the “BODY WEIGHT (g) DIFFERENCE” value is -1.8 ± 0.5 g. The “BODY WEIGHT (g) TWO WEEKS” value in data set [3] (1 mg/kg once a day for 2 weeks, control group 44.8 ± 0.9) was found to be 42.2 ± 1.6 g. Further, in data set [3] (1 mg/kg once a day for 2 weeks, control group 103 ± 19), the “LIVER TRIGLYCERIDE” value is given as 70 ± 11 mg/g. Also, the “BILE ACID REDUCTION RATE (%) IN RAT MODEL WITH CHOLIC ACID LOADING” value in data set [4] is 35%. Moreover, the “CELL TOXICITY AGAINST Caco2 3 μM” value in data set [5] (3 μM) is <1%. For the same molecule, the “CELL TOXICITY AGAINST Caco2 10 μM” value in data set [5] (10 μM) is reported as <1%. For the same molecule, the “CELL TOXICITY AGAINST Caco2 30 μM” value in data set [5] (30 μM) is on record as <1%.
